Results as given in the supplement of paper PMC10307832.

Tests used:
Assay in all cases: relative viability (nuclei count vs DMSO), 5 days (fraction); higher = more cells survive
Tosedostat + Pictilisib = compound: CC(C)C[C@@H](C(=O)N[C@H](C(=O)OC1CCCC1)c1ccccc1)[C@H](O)C(=O)NO [Tosedostat] + CS(=O)(=O)N1CCN(Cc2cc3nc(-c4cccc5[nH]ncc45)nc(N4CCOCC4)c3s2)CC1 [Pictilisib] (partner 1 µM)
In short: (§1)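 Relative viability divides the nuclei count in treated wells by that in vehicle wells. Lung cancer cell lines were seeded in 1536-well plates, dosed by pin tool the next day, and fixed and stained after 5 days in one step with final 0.05% Triton X-100, 1% formaldehyde and 1 ug/ml Hoechst. Dosing was a single drug or a fixed anchor-drug dose plus five library-drug doses (not always all listed) in √10 steps, and values are medians of duplicate plates imaged at 4×.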

[1] = compound: CC1=NN=C(O1)C2=NN=C(C=C2)N3CCC(CC3)OC4=C(C=CC(=C4)F)Cl + CC(=O)Nc1cccc(-n2c(=O)n(C3CC3)c(=O)c3c(Nc4ccc(I)cc4F)n(C)c(=O)c(C)c32)c1 [Trametinib] (partner 0.02 µM)
In short: as §1

Tosedostat + Decitabine = compound: CC(C)C[C@@H](C(=O)N[C@H](C(=O)OC1CCCC1)c1ccccc1)[C@H](O)C(=O)NO [Tosedostat] + Nc1ncn([C@H]2C[C@H](O)[C@@H](CO)O2)c(=O)n1 [Decitabine] (partner 2 µM)
In short: as §1

[2] = compound: CC1=NN=C(O1)C2=NN=C(C=C2)N3CCC(CC3)OC4=C(C=CC(=C4)F)Cl + NC(=O)Nc1cc(-c2cccc(F)c2)sc1C(=O)N[C@H]1CCCNC1 [AZD7762] (partner 0.2 µM)
In short: as §1

Cell Line	relative viability (Tosedostat + Pictilisib; first compound 0.02 µM)	relative viability (Tosedostat + Pictilisib; first compound 0.06325 µM)	relative viability (Tosedostat + Pictilisib; first compound 0.2 µM)	relative viability (Tosedostat + Pictilisib; first compound 0.6325 µM)	relative viability (Tosedostat + Pictilisib; first compound 2 µM)	relative viability ([1]; first compound 0.253 µM)	relative viability ([1]; first compound 0.8 µM)	relative viability ([1]; first compound 2.53 µM)	relative viability ([1]; first compound 8 µM)	relative viability (Tosedostat + Decitabine; first compound 0.02 µM)	relative viability (Tosedostat + Decitabine; first compound 0.06325 µM)	relative viability (Tosedostat + Decitabine; first compound 0.2 µM)	relative viability (Tosedostat + Decitabine; first compound 0.6325 µM)	relative viability (Tosedostat + Decitabine; first compound 2 µM)	relative viability ([2]; first compound 0.253 µM)	relative viability ([2]; first compound 0.8 µM)	relative viability ([2]; first compound 2.53 µM)	relative viability ([2]; first compound 8 µM)
HCC-44	0.666	0.689	0.527	0.695	0.378	0.608	0.994	0.945	0.856	0.941	0.919	0.943	0.865	0.747	0.388	0.609	0.495	0.452
HCC-78	0.202	0.226	0.212	0.221	0.197	0.338	0.396	0.433	0.365	0.634	0.706	0.732	0.75	0.658	0.457	0.483	0.463	0.373
HCC-366	0.167	0.154	0.0818	0.151	0.103	0.16	0.23	0.268	0.193	0.332	0.369	0.397	0.311	0.359	0.118	0.144	0.225	0.173
HCC-827	1.02	0.991	1.3	0.885	1.09	0.42	0.343	0.431	0.399	0.317	0.331	0.289	0.26	0.314	0.299	0.158	0.213	0.2
IA-LM	0.447	0.308	0.36	0.302	0.403													
NCI-H520	0.261	0.277	0.3	0.283	0.396	0.656	0.578	0.648	0.475	0.524	0.439	0.414	0.459	0.495				
NCI-H522						0.785	0.852	0.783	0.924	0.594	0.619	0.639	0.578	0.72	0.9	0.879	0.857	0.715
NCI-H661	0.399	0.444	0.366	0.432	0.301	0.489	0.472	0.429	0.379	0.637	0.547	0.535	0.522	0.512				
NCI-H1299	0.813	0.77	0.646	0.485	0.316													
NCI-H1563	0.636	0.657	0.708	0.712	0.616													
NCI-H1648						0.442	0.43	0.405	0.479	0.389	0.426	0.51	0.421	0.399	0.434	0.532	0.6	0.503
NCI-H1650	0.696	0.599	0.652	0.645	0.558	0.352	0.482	0.481	0.49	0.43	0.413	0.433	0.318	0.237				
NCI-H1703	0.229	0.253	0.268	0.222	0.245										0.097	0.129	0.153	0.0983
NCI-H2009	1.14	0.841	0.682	0.732	0.524	0.257	0.23	0.233	0.174	0.379	0.377	0.404	0.433	0.329				
NCI-H2023	0.247	0.233	0.251	0.139	0.198	0.36	0.419	0.388	0.301	0.23	0.202	0.223	0.167	0.183				
NCI-H2228	0.438	0.492	0.347	0.354	0.217	0.373	0.41	0.548	0.612									
NCI-H2342						0.581	0.554	0.55	0.486	0.713	0.688	0.718	0.692	0.689	0.417	0.415	0.479	0.299
SK-LU-1	0.688	0.728	0.505	0.604	0.485	0.47	0.417	0.531	0.407	0.624	0.651	0.563	0.471	0.454				
SK-MES-1	0.382	0.317	0.381	0.315	0.311	0.486	0.573	0.507	0.501	0.356	0.372	0.325	0.273	0.346				
SW 900							0.749	0.862	0.621	0.463	0.499	0.405	0.359	0.415		0.563	0.596	0.66
SW 1573	0.477	0.485	0.484	0.485	0.388	0.512	0.43	0.445	0.306	0.675	0.504	0.482	0.451	0.415				
